Laboratory results from PMC12115147, “Identification of 3-[(4-Acetylphenyl)(4-Phenylthiazol-2-Yl)Amino]Propanoic Acid Derivatives as Promising Scaffolds for the Development of Novel Anticancer Candidates Targeting SIRT2 and EGFR” (Pharmaceuticals, 2025).
pIC50: −log10 of the molar value. Where two headings read alike, the source gives them in different places.

Legend:
[1] = test system: A549 human lung adenocarcinoma cells; assay: cells; settings: A549, 24 h; for viability at 100 µM: read-out: A549 cell viability
Protocol: (§2) The dissolved compounds were then manually dispensed into deep 96-well plates, sealed, and stored at −80 °C until the day of the experiment. For the in vitro antiproliferative activity screening, the compounds were thawed at room temperature, protected from light, and the aliquots were diluted in complete cell culture media to achieve a final concentration of 100 µM and used for the in vitro assays.
(§3) All cells were cultivated in Dulbecco’s Modified Eagle Medium/Nutrient Mixture F-12 (DMEM/F-12) (Gibco, Waltham, MA, USA), 10% fetal bovine serum (FBS) (Gibco, Waltham, MA, USA), 100 U/mL penicillin, and 100 μg/mL streptomycin (P/S) (Gibco, Waltham, MA, USA). Culturing conditions were maintained at 37 °C with a humidified atmosphere containing 5% CO2. The culture medium was refreshed every 2–3 days, and cells were passaged upon reaching 70–80% confluence.
(§4) The in vitro inhibitory effects of the compounds were assessed using the MTT assay [40, 41, 42, 43, 44]. Briefly, cells were plated in 96-well plates at a density of 1 × 10^4 cells per well. After allowing the cells to adhere overnight at 37 °C in 5% CO2, they were treated with compounds at concentration of 100 µM in triplicate. Following a 20 h incubation, MTT reagent was added, and the cells were further incubated for 4 h. The resulting formazan was solubilized in anhydrous DMSO, and absorbance was measured at 570 nm using a microplate reader. Cell viability was calculated using the following formula: ([AE − AB]/[AC − AB]) × 100%, where AE, AC, and AB represent the absorbance values of experimental samples, untreated controls, and blank wells, respectively. Data analysis was performed using GraphPad Prism or QuickCalcs (2.0 version).
(§5) The IC50 values, defined as the concentration of compound required to reduce cell viability by 50%, were determined using a dose–response curve. The data were fitted to a nonlinear regression model (GraphPad Prism version 9.0, GraphPad Software, San Diego, CA, USA) to calculate the IC50 values for each compound tested in triplicate.

[2] = test system: A549 human lung adenocarcinoma cells; settings: for A549 cell viability: 100 µM
Protocol: as §2, §3, §4, §5

[3] = test system: HEK293 human embryonic kidney cells; assay: MTT cytotoxicity in non-cancerous HEK293 cells; format: cell-based; settings: 24 h
Protocol: as §3, §4, §5

H69AR cells = assay: MTT cell viability assay in anthracycline-resistant H69AR cells; format: cell-based; settings: Homo sapiens, 24 h, normalized to untreated control
Protocol: as §2
(§6) The A549 non-small cell human lung carcinoma cells (ATCC CCL-185), H69 (HTB-19), H69AR (CRL-11351) were obtained from the American Type Culture Collection (Rockville, MD, USA). […] All cells were cultivated in Dulbecco’s Modified Eagle Medium/Nutrient Mixture F-12 (DMEM/F-12) (Gibco, Waltham, MA, USA), 10% fetal bovine serum (FBS) (Gibco, Waltham, MA, USA), 100 U/mL penicillin, and 100 μg/mL streptomycin (P/S) (Gibco, Waltham, MA, USA). Culturing conditions were maintained at 37 °C with a humidified atmosphere containing 5% CO2. The culture medium was refreshed every 2–3 days, and cells were passaged upon reaching 70–80% confluence.
as §4

[4] = test system: A549 agarose-based spheroids; assay: LDH release cytotoxicity assay in A549 3D spheroids; format: cell-based, human; settings: 100 µM, 24 h
Protocol: (§1) A549 tumor spheroids were generated using an agarose-based technique with modifications. A549 cells were plated at a density of 2.5 × 10^5 cells/well in 96-well plates pre-coated with 50 µL of 1% agarose in Dulbecco’s Phosphate-Buffered Saline (DPBS). The plates were incubated for 48 h to allow spheroid formation. After 48 h, the spheroids were treated with 100 µM of compounds dissolved in DMEM/F12 supplemented with 10% FBS and 0.25% DMSO for 24 h.
A549 tumor spheroids were generated in 96-well plates pre-coated with 50 µL of 1% agarose in Dulbecco’s Phosphate-Buffered Saline (DPBS), as described previously. After 48 h of spheroid formation, the spheroids were treated with compounds dissolved in DMEM/F12 supplemented with 10% FBS and 0.25% DMSO. After a 24 h incubation, spheroid-conditioned media were collected by centrifuging the plates at 1000× g for 2 min to remove the spheroids. Then, 50 µL of the supernatant was transferred to a new 96-well plate and mixed with LDH assay reagent (Pierce LDH Cytotoxicity Assay Kit, Thermo Fisher Scientific, Waltham, MA, USA) according to the manufacturer’s instructions. A commercial maximum LDH control was used to normalize the results. The percentage of LDH release was calculated based on the absorbance readings, using the formula: (sample absorbance − blank absorbance)/(maximum control absorbance − blank absorbance) × 100%.

[5] = test system: A549 agarose-based spheroids; assay: AO/PI staining of A549 spheroids; format: cell-based, human; settings: 100 µM, 24 h
Protocol: as §1
After treatment with compounds, spheroids were incubated with 5 µg/mL acridine orange and 5 µg/mL propidium iodide for 30 min at 37 °C in a humidified incubator. Following incubation, the spheroids were washed twice with DPBS to remove excess stain. The stained spheroids were then visualized using the EVOS cell imaging system (Thermo Fisher Scientific, Waltham, MA, USA). The fluorescent images were captured, and the viability of the spheroids was assessed based on the differential staining patterns, with live cells showing green fluorescence (acridine orange) and dead cells displaying red fluorescence (propidium iodide).

[6] = test system: H69 human lung carcinoma cells; assay: MTT cell viability assay in H69 cells; format: cell-based; settings: NCI-H69, 24 h, normalized to untreated control
Protocol: as §2, §6, §4

Molecule: COC(=O)CCN(c1ccc(/C(C)=N\O)cc1)c1nc(-c2ccc(Cl)cc2)cs1 [Compound 24, Methyl 3-/[4-(4-chlorophenyl)thiazol-2-yl]{4-[1-(hydroxyimino)ethyl]phenyl}amino/propanoate]
- viability at 100 µM [1]: 77.7%

Molecule: CC(=NN)c1ccc(N(CCC(=O)NN)c2nc(-c3ccc(Cl)cc3)cs2)cc1 [Compound 32, 3-{[4-(4-Chlorophenyl)thiazol-2-yl][4-(1-hydrazineylideneethyl)phenyl]amino}propanehydrazide]
- viability at 100 µM [1]: 84%

Molecule: CC(=NN)c1ccc(N(CCC(=O)NN)c2nc(-c3ccccc3)cs2)cc1 [Compound 31, 3-{[4-(1-Hydrazineylideneethyl)phenyl](4-phenylthiazol-2-yl)amino}propanehydrazide]
- viability at 100 µM [1]: 67.1%

Molecule: N.N.[Cl][Pt][Cl] [CP, cisplatin, reference compound]
- pIC50 ([2]; A549 cells, 24 h, MTT): 4.93
- pIC50 [3]: 5.25

Molecule: COC(=O)CCN(c1ccc(/C(C)=N\O)cc1)c1nc(-c2ccccc2)cs1 [Compound 23, Methyl 3-/{4-[1-(hydroxyimino)ethyl]phenyl}(4-phenylthiazol-2-yl)amino/propanoate]
- viability at 100 µM [1]: 41.9%

Molecule: C/C(=N/O)c1ccc(N(CCC(=O)O)c2nc(-c3ccc(Cl)cc3)cs2)cc1 [Compound 22, 3-/[4-(4-Chlorophenyl)thiazol-2-yl]{4-[1-(hydroxyimino)ethyl]phenyl}amino/propanoic acid]
- viability at 100 µM (H69AR cells): 26.6%
- LDH release (cytotoxicity) [4]: 40.6%
- spheroid morphology and cell viability by AO/PI staining [5]: partial cell death
- pIC50 [1]: 5.61
- viability at 100 µM [1]: 37.6%
- pIC50 ([3]; Homo sapiens): 4.42
- viability at 100 µM [6]: 33.9%

Molecule: C/C(=N/O)c1ccc(N(CCC(=O)NN)c2nc(-c3ccccc3)cs2)cc1 [Compound 25, 3-/{4-[1-(Hydroxyimino)ethyl]phenyl}(4-phenylthiazol-2-yl)amino/propanehydrazide]
- viability at 100 µM (H69AR cells): 48.4%
- LDH release (cytotoxicity) [4]: 72.1%
- spheroid morphology and cell viability by AO/PI staining [5]: substantial disruption of spheroid architecture and widespread PI-positive staining
- pIC50 [1]: 5.09
- viability at 100 µM [1]: 25%
- pIC50 ([3]; Homo sapiens): 4.97
- viability at 100 µM [6]: 27.7%

Molecule: CC(=NNc1ccccc1)c1ccc(N(CCC(=O)O)c2nc(-c3ccc(Cl)cc3)cs2)cc1 [Compound 28, 3-/[4-(4-Chlorophenyl)thiazol-2-yl]{4-[1-(2-phenylhydrazineylidene)ethyl]phenyl}amino/propanoic acid]
- A549 cell viability [2]: 82.4–100%

Molecule: 3,3′-{[(Phenylmethylene)bis(4-phenylthiazole-2,5-diyl)]bis[(4-acetylphenyl)azanediyl]}dipropionic acid [Compound 13]
- A549 cell viability [2]: 57.6%

Molecule: COC(=O)CCN(c1ccc(C(C)=O)cc1)c1nc(-c2ccccc2)cs1 [Compound 29, Methyl 3-[(4-acetylphenyl)(4-phenylthiazol-2-yl)amino]propanoate]
- viability at 100 µM [1]: 82.4 to 100%

Molecule: CC(=O)c1ccc(N(CCC(=O)O)c2nc(-c3ccccc3)c(C(c3ccc(F)cc3)c3sc(N(CCC(=O)O)c4ccc(C(C)=O)cc4)nc3-c3ccccc3)s2)cc1 [Compound 14, 3,3′-/{[(4-Fluorophenyl)methylene]bis(4-phenylthiazole-5,2-diyl)}bis[(4 acetylphenyl)azanediyl]/dipropionic acid]
- viability at 100 µM [1]: 47.8%

Molecule: COc1cccc2c1C(=O)c1c(O)c3c(c(O)c1C2=O)C[C@@](O)(C(=O)CO)C[C@@H]3O[C@H]1C[C@H](N)[C@H](O)[C@H](C)O1 [DOX, doxorubicin, reference compound]
- pIC50 [1]: 5.52
- pIC50 ([3]; Homo sapiens): 5.42

Molecule: CC(=NNc1ccccc1)c1ccc(N(CCC(=O)O)c2nc(-c3ccccc3)cs2)cc1 [Compound 27, 3-/{4-[1-(2-Phenylhydrazineylidene)ethyl]phenyl}(4-phenylthiazol-2-yl)amino/propanoic acid]
- A549 cell viability [2]: 82.4–100%

Molecule: COC(=O)CCN(c1ccc(C(C)=O)cc1)c1nc(-c2ccc(Cl)cc2)cs1 [Compound 30, Methyl 3-{(4-acetylphenyl)[4-(4-chlorophenyl)thiazol-2-yl]amino}propanoate]
- viability at 100 µM [1]: 82.4 to 100%

Molecule: C/C(=N/O)c1ccc(N(CCC(=O)O)c2nc(-c3ccccc3)cs2)cc1 [Compound 21, 3-/{4-[1-(Hydroxyimino)ethyl]phenyl}(4-phenylthiazol-2-yl)amino/propanoic acid]
- viability at 100 µM (H69AR cells): 23.5%
- LDH release (cytotoxicity) [4]: 66.7%
- spheroid morphology and cell viability by AO/PI staining [5]: partial cell death
- pIC50 [1]: 5.27
- viability at 100 µM [1]: 35.3%
- pIC50 ([3]; Homo sapiens): 4.83
- viability at 100 µM [6]: 18.3%

Molecule: C/C(=N/O)c1ccc(N(CCC(=O)NN)c2nc(-c3ccc(Cl)cc3)cs2)cc1 [Compound 26, 3-/[4-(4-Chlorophenyl)thiazol-2-yl]{4-[1-(hydroxyimino)ethyl]phenyl}amino/propanehydrazide]
- viability at 100 µM (H69AR cells): 15.4%
- LDH release (cytotoxicity) [4]: 89.9%
- spheroid morphology and cell viability by AO/PI staining [5]: substantial disruption of spheroid architecture and widespread PI-positive staining
- pIC50 [1]: 4.60
- viability at 100 µM [1]: 30.5%
- pIC50 ([3]; Homo sapiens): 4.86
- viability at 100 µM [6]: 67%
